According to PMC11862924, “Phenylpyrazoles as Inhibitors of the m^6A RNA-Binding Protein YTHDF2” (JACS Au, 2025):

Assays:
[1] = target: T1, YTHDF2 (residues 383–553) (Homo sapiens, UniProt Q9Y5A9); assay: Fluorescence polarization (FP) assay, YTHDF2–m6A RNA interaction; type: binding; conditions: 100 μM compound; YTHDF2 (residues 383–553, 20 nM), FAM-labeled m6A RNA probe 5 nM; average ± SD
T1 construct: A YTHDF2 YTH domain construct (residues 383–553) was subcloned to a pOPIN plasmid; made in house; host or cells: Escherichia coli BL21(DE3)
T1 sequence (Q9Y5A9 383-553): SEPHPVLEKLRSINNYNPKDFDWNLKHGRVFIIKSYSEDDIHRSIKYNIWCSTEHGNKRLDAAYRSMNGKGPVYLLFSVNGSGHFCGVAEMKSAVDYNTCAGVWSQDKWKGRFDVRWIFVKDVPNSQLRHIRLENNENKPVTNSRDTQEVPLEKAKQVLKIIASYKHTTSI
Experimental: The FP assay was performed in 384-well black plates (Corning no. 4514) with a total reaction volume of 15 μL. The final concentrations of protein (YTHDF2) and RNA were […], respectively, in a buffer containing 20 mM HEPES/KOH pH 7.5, 50 mM NaCl, 0.005% Tween 20, and 1 mM GSH (DTT). Compounds were incubated with protein, added FAM-m^6A RNA probe ([…](m6)ACUGUG) (purchased from IDT), and incubated at 4 °C for 30 min. The fluorescence polarization was measured using a plate reader (TECAN Spark) under an excitation wavelength of 485 nm and an emission wavelength of 535 nm with a bandwidth of 20 nm. […] The data were determined using GraphPad Prism 9.

[2] = MTT cytotoxicity assay, JAR; type: cell-based; conditions: human, JAR cells, triplicates, read-out: Cytotoxicity against cancer cells (IC50), JAR
Experimental: (§1) JAR, K562, and HCT116 cells were seeded in 96-well plates (3500 cells/well) and incubated for 8 h. The medium with different concentrations of compounds (100, 33.3, 11.1, 3.7, 1.2, and 0.4 μM) was added to the 96-well plates. Data were normalized to the medium with 0.1% DMSO. After incubation for 72 h, MTT solution (5 mg/mL, 20 μL) was added per well in a dark environment and incubated for 4 h. After the medium was discarded, DMSO (150 μL) was added per well, and the absorbance was measured at 492 nm by a plate reader (TECAN Spark).

[3] = MTT cytotoxicity assay, K562; type: cell-based; conditions: human, K562 cells, triplicates, read-out: Cytotoxicity against cancer cells (IC50), K562
Experimental: as §1

[4] = MTT cytotoxicity assay, HCT116; type: cell-based; conditions: human, HCT116 cells, triplicates, read-out: Cytotoxicity against cancer cells (IC50), HCT116
Experimental: as §1

JAR = assay: CCK-8 proliferation assay, JAR; type: cell-based; conditions: Homo sapiens; CCK-8 kit assay, triplicates, 72 h; read-out: Anti-proliferation activity against cancer cells (IC50), JAR
Experimental: (§2) The JAR, K562, HCT116, and MOLM13 cells were seeded in 96-well plates (3000 cells/well). After being cultured overnight, compounds were added together with the DMSO treatment (0.1%) as a control. After 72 h, CCK-8 solution (Vazyme, A311) was added, and the cells were incubated at 37 °C for 4 h. The absorbance was measured at 450 nm using a plate reader (TECAN Spark).

K562 = assay: CCK-8 proliferation assay, K562; type: cell-based; conditions: Homo sapiens, CCK-8 kit assay, triplicates, 72 h, read-out: Anti-proliferation activity against cancer cells (IC50), K562
Experimental: as §2

HCT116 = assay: CCK-8 proliferation assay, HCT116; type: cell-based; conditions: Homo sapiens, HCT-116; CCK-8 kit assay, triplicates, 72 h; read-out: Anti-proliferation activity against cancer cells (IC50), HCT116
Experimental: as §2

SMILES | inhibition at 100 µM [1] | IC50 (K562) | IC50 (HCT116) | inhibition at 100 μM in the FP assay [1] | IC50 at 72 h [2] | IC50 at 72 h [3] | IC50 at 72 h [4] | IC50 (JAR)
O=C(O)c1cccc(-n2cc(C(=O)c3ccccc3O)cn2)c1 [CK-23, 3-(4-(2-hydroxybenzoyl)-1H-pyrazol-1-yl)benzoic acid] |  | > 50 µM | > 50 µM |  | 45 ± 4.6 µM | 21.5 ± 8.2 µM | 12.9 ± 2.5 µM | > 50 µM
O=C(O)c1ccc(-n2cc(C(=O)c3ccccc3O)cn2)cc1 [CK-24] | 5.2 ± 6.7% | > 50 µM | > 50 µM |  | > 50 µM | 43.2 ± 15.7 µM | > 50 µM | > 50 µM
O=C(c1cnn(-c2ccccc2C(=O)O)c1)c1ccccc1O [CK-25] | 22.1 ± 3.3% | > 50 µM | > 50 µM |  | > 50 µM | 44.3 ± 13.1 µM | > 50 µM | > 50 µM
O=C(c1cnn(-c2ccc(Cl)cc2)c1)c1ccccc1O [CK-27] | -5.2 ± 2.8% | 44.8 ± 8.7 µM | 45.6 ± 2.5 µM |  | > 50 µM | > 50 µM | > 50 µM | > 50 µM
O=C(c1cnn(-c2ccc(Br)cc2)c1)c1ccccc1O [CK-28] | 42.2 ± 12.1% | > 50 µM | > 50 µM |  | > 50 µM | > 50 µM | > 50 µM | > 50 µM
N#Cc1ccc(-n2cc(C(=O)c3ccccc3O)cn2)cc1 [CK-38] | 44.5 ± 7.1% | > 50 µM | > 50 µM |  | > 50 µM | 43.2 ± 11.2 µM | > 50 µM | > 50 µM
COc1ccc(-n2cc(C(=O)c3ccccc3O)cn2)cc1 [CK-40] | -4.8 ± 3.2% | 39.2 ± 6.1 µM | > 50 µM |  | 44.6 ± 12.3 µM | 33.2 ± 5.8 µM | 25.5 ± 1.8 µM | > 50 µM
O=C(c1cnn(-c2ccccc2F)c1)c1ccccc1O [CK-43] | 24.4 ± 2.1% | > 50 µM | > 50 µM |  | > 50 µM | 46.2 ± 10.1 µM | > 50 µM | > 50 µM
COc1ccccc1-n1cc(C(=O)c2ccccc2O)cn1 [CK-46] | 5.4 ± 4.2% | 42.9 ± 6.2 µM | > 50 µM |  | > 50 µM | 23.8 ± 4.7 µM | 49.4 ± 22.1 µM | > 50 µM
COc1ccc(-n2cc(C(=O)c3ccccc3O)cn2)cn1 [CK-47] | 25.5 ± 6.7% | > 50 µM | > 50 µM |  | > 50 µM | > 50 µM | > 50 µM | > 50 µM
COC(=O)c1ccc(-n2cc(/C=C(\C#N)C(N)=O)cn2)cc1 [CK-94] | < 30% |  |  | 26.6 ± 1.9% |  |  |  | 

Further lines, with some results ahead:

inhibition at 100 µM [1] | IC50 (K562) | IC50 (HCT116) | inhibition at 100 μM in the FP assay [1] | SMILES | IC50 at 72 h [2] | IC50 at 72 h [3] | IC50 at 72 h [4] | IC50 (JAR)
-3.7 ± 7.8% | 28.3 ± 5.4 µM | > 50 µM |  | O=C(c1cnn(-c2ccccc2)c1)c1ccccc1O [CK-22] | 48.1 ± 10.2 µM | 32.1 ± 12.2 µM | 43.5 ± 12.3 µM | 27.6 ± 2.8 µM
10.7 ± 7.2% | 21.5 ± 1.9 µM | 43.2 ± 5.3 µM |  | O=C(c1cnn(-c2ccc(F)cc2)c1)c1ccccc1O [CK-26] | 47.2 ± 15.5 µM | 23.4 ± 9.4 µM | 29.4 ± 10.4 µM | 31.2 ± 6.4 µM
6.9 ± 3.3% | 25.6 ± 2.3 µM | 38.9 ± 12.1 µM |  | O=C(c1cnn(-c2ccc(OC(F)(F)F)cc2)c1)c1ccccc1O [CK-39] | 46.2 ± 20.8 µM | 19.8 ± 14.3 µM | 26.4 ± 10.3 µM | 31.2 ± 3.5 µM
0.8 ± 7% | 34.9 ± 3.5 µM | > 50 µM |  | O=C(c1cnn(-c2ccccc2Cl)c1)c1ccccc1O [CK-44] | 44.7 ± 14.4 µM | 32.3 ± 8.8 µM | 18.5 ± 14.1 µM | 41.2 ± 8.5 µM
22.1 ± 6.6% | 33.1 ± 5.7 µM | > 50 µM |  | Cc1ccccc1-n1cc(C(=O)c2ccccc2O)cn1 [CK-45] | 43.2 ± 15.5 µM | 21.9 ± 7.6 µM | 26 ± 16.8 µM | 42.8 ± 1.2 µM
